Species: Rattus norvegicus
Experiment: Dose required to prevent loss of total bone mineral density of rat distal femur
Assay type: functional

For `Cl.Oc1ccc2c(c1)CCC21C=C(c2ccc(OCCN3CCCCC3)cc2)c2cc(O)ccc21` (single isomer, unassigned; (+)), the Dose was 0.1 mg/kg/day.
